Results taken from the supplement of paper PMC13380429.

Legend:
Conditions in all cases: 72 h
Caco-2 [1] = experiment: relative viability EC50 (midpoint between 100% and the lowest measured viability); higher = less toxic
HepG2 [2] = experiment: as above
Vero E6 [3] = experiment: as above
Caco-2 [4] = experiment: drug sensitivity score (DSS) for viability; higher = more toxic; extreme values may be limits of the assay
HepG2 [5] = experiment: as above
Vero E6 [6] = experiment: as above
Caco-2 [7] = experiment: cell viability relative to DMSO; higher = less toxic
HepG2 [8] = experiment: as above
Vero E6 [9] = experiment: as above
Calu-3 [10] = experiment: relative viability EC50 (midpoint between 100% and the lowest measured viability); higher = less toxic
U2OS [11] = experiment: as above
Calu-3 [12] = experiment: drug sensitivity score (DSS) for viability; higher = more toxic; extreme values may be limits of the assay
U2OS [13] = experiment: as above
Calu-3 [14] = experiment: cell viability relative to DMSO; higher = less toxic
U2OS [15] = experiment: as above

SMILES	relative viability EC50 (Caco-2 [1]) [µM]	relative viability EC50 (HepG2 [2]) [µM]	relative viability EC50 (Vero E6 [3]) [µM]	drug sensitivity score (Caco-2 [4])	drug sensitivity score (HepG2 [5])	drug sensitivity score (Vero E6 [6])	cell viability (Caco-2 [7]; 1 nM) [%]	cell viability (Caco-2 [7]; 10 nM) [%]	cell viability (Caco-2 [7]; 100 nM) [%]	cell viability (Caco-2 [7]; 1000 nM) [%]	cell viability (Caco-2 [7]; 10000 nM) [%]	cell viability (HepG2 [8]; 1 nM) [%]	cell viability (HepG2 [8]; 10 nM) [%]	cell viability (HepG2 [8]; 100 nM) [%]	cell viability (HepG2 [8]; 1000 nM) [%]	cell viability (HepG2 [8]; 10000 nM) [%]	cell viability (Vero E6 [9]; 1 nM) [%]	cell viability (Vero E6 [9]; 10 nM) [%]	cell viability (Vero E6 [9]; 100 nM) [%]	cell viability (Vero E6 [9]; 1000 nM) [%]	cell viability (Vero E6 [9]; 10000 nM) [%]	relative viability EC50 (Calu-3 [10]) [µM]	relative viability EC50 (U2OS [11]) [µM]	drug sensitivity score (Calu-3 [12])	drug sensitivity score (U2OS [13])	cell viability (Calu-3 [14]; 1 nM) [%]	cell viability (Calu-3 [14]; 10 nM) [%]	cell viability (Calu-3 [14]; 100 nM) [%]	cell viability (Calu-3 [14]; 1000 nM) [%]	cell viability (Calu-3 [14]; 10000 nM) [%]	cell viability (U2OS [15]; 1 nM) [%]	cell viability (U2OS [15]; 10 nM) [%]	cell viability (U2OS [15]; 100 nM) [%]	cell viability (U2OS [15]; 1000 nM) [%]	cell viability (U2OS [15]; 10000 nM) [%]
NS(=O)(=O)c1cc(-c2nnn[nH]2)c(NCc2cccs2)cc1Cl [azosemide]	> 10	> 10	> 10	1.6	0	0	99.4	111	86.5	92.4	92.1	94.5	103	103	95.7	89.6	103	108	104	106	97.1	–	–	–	–	–	–	–	–	–	–	–	–	–	–
COc1cc2ncnc(Nc3ccc(Oc4ccccc4)cc3)c2cc1OC [SRC-kinase-inhibitor-I]	–	> 10	–	2.1	0.1	2.6	96.8	106	98	94.7	71.1	104	112	104	103	86.8	103	97.2	109	93.5	66.7	1.98	> 10	5.4	0.4	88.9	102	94	89.9	33.4	99.7	105	99.6	103	80.8
CC(C)(C)C[C@@H]1N[C@@H](C(=O)N[C@H]2CC[C@H](O)CC2)[C@H](c2cccc(Cl)c2F)[C@]12C(=O)Nc1cc(Cl)ccc12	–	0.315	0.583	1.7	13.8	7.2	97.7	104	91	94.3	73.2	108	95.8	95.5	28.7	24.2	100	102	97.8	63.4	49.3	–	–	0.7	4.2	90.6	92.3	95.5	110	73.1	99.6	109	96.3	80.7	58.2
O=C1c2ccccc2C(=O)C1c1ccccc1 [phenindione]	> 10	> 10	–	0	0	–	88.5	89.3	99.4	94.1	101	89.4	110	93.7	98.5	101	–	–	–	–	–	> 10	> 10	0	0	108	85.4	100	95.2	106	105	97.9	103	99.3	102
Nc1ccn([C@@H]2O[C@H](CO)[C@@H](O)[C@@H]2O)c(=O)n1 [cytarabine]	> 10	0.09	–	2.1	15.2	2.7	106	97	90.7	85.9	80.6	95.2	100	66.4	42.1	38.7	95.8	96.5	93.5	95.1	62.1	–	–	2.4	1.6	99.6	93.8	91.9	88.6	70.9	103	94.3	96.3	96.9	72.8
CC(=O)N1CCN(c2ccc(OC[C@@H]3CO[C@@](Cn4ccnc4)(c4ccc(Cl)cc4Cl)O3)cc2)CC1 (racemic) [ketoconazole]	> 10	> 10	–	0.3	0.3	–	91.9	110	95.1	104	82.6	112	96.1	111	102	83.3	–	–	–	–	–	> 10	> 10	0	0	97.1	90.6	96.3	96.3	96.9	98.3	101	99.3	103	95.3
CCOc1ccc2nc3cc(N)ccc3c(N)c2c1 [ethacridine-lactate-monohydrate]	> 10	2.82	> 10	0	4.6	0	97.4	104	101	110	95.4	115	131	124	96.6	25.4	102	101	100	102	97.2	–	–	–	1.9	–	–	–	–	–	106	105	104	105	55.6
CC(=O)O[C@]1(C(C)=O)CC[C@H]2[C@@H]3CCC4=CC(=O)CC[C@]4(C)[C@H]3CC[C@@]21C [hydroxyprogesterone-acetate]	> 10	> 10	–	0	0	–	95.8	98.6	90.2	104	98.9	98.7	95.5	110	90.3	102	–	–	–	–	–	> 10	> 10	0	0	103	115	91.3	95.7	93.8	99.2	101	106	99.9	98.7
CCCCCCCCCCCCCCCC(=O)OC[C@H](O)[C@H]1OC(=O)C(O)=C1O [L-ascorbyl-6-palmitate]	> 10	> 10	–	0	0	–	95.2	100	96.1	99.7	95	101	93.2	92.6	94.4	97.7	–	–	–	–	–	> 10	> 10	0	0	98.9	104	94.5	108	113	100	103	97.5	102	97.9
Cc1ccc(C(=O)Nc2ccc(S(=O)(=O)O)c3cc(S(=O)(=O)O)cc(S(=O)(=O)O)c23)cc1NC(=O)c1cccc(NC(=O)Nc2cccc(C(=O)Nc3cc(C(=O)Nc4ccc(S(=O)(=O)O)c5cc(S(=O)(=O)O)cc(S(=O)(=O)O)c45)ccc3C)c2)c1 [suramin]	> 10	> 10	–	0	0	–	93.5	94.5	99	90.9	97.5	97.4	109	102	103	91.8	–	–	–	–	–	> 10	> 10	0	0	96.3	101	94.8	103	111	99.9	94.7	99.4	96.7	100
C#Cc1cccc(Nc2ncnc3cc4c(cc23)OCCOCCOCCO4)c1 [icotinib]	> 10	> 10	–	0.8	0	3.5	104	100	98.5	87.4	90.7	86.4	103	87.7	102	99.4	91.5	100	92	81.8	66.9	–	> 10	7.2	0	93.8	104	90.2	66.1	50.8	96.4	95.6	98.1	93.7	96.6
Cn1cncc1[C@@](N)(c1ccc(Cl)cc1)c1ccc2c(c1)c(-c1cccc(Cl)c1)cc(=O)n2C [tipifarnib]	–	0.532	> 10	7.8	10.6	2.5	86.5	90.7	80.3	73.1	59.9	98.4	95.2	74.3	63.5	23.3	103	94.2	95.1	82.7	76.9	–	–	8.9	6.4	88.7	92.1	81.6	63.2	54.5	95.3	96.7	88.9	70.9	53.9
NC(=S)N/N=C/c1ncccc1N [triapine]	–	2.34	–	2.4	5	3.9	97.2	98.7	95.3	92.1	68.6	103	97.7	119	93	30.6	97	98.3	98.1	92.3	50.3	–	–	1.2	1	106	94.1	101	101	70.5	96.8	99.6	95.8	102	72.8
Cc1sc2c(c1C)C(c1ccc(Cl)cc1)=N[C@@H](CC(N)=O)c1nnc(C)n1-2 [CPI-203]	–	0.186	0.172	4.7	13.2	18.6	100	95.8	88.9	76.3	70.5	91.8	94.3	81.3	40.2	35.2	96.4	93.9	73.7	15.4	11	–	0.302	4.7	9.3	98.3	105	100	78.3	60	93.9	94.4	86.1	57.9	43.6
CC(C)c1nc(N(C)S(C)(=O)=O)nc(-c2ccc(F)cc2)c1/C=C/[C@@H](O)C[C@@H](O)CC(=O)O [rosuvastatin]	> 10	> 10	–	0.3	0	1.1	103	105	100	101	83.7	109	110	98.4	106	96.1	101	97.9	99.6	100	72.7	> 10	> 10	0	0	98.5	91.3	101	105	103	101	96.7	102	99.5	98
CC1(C)S[C@@H]2[C@H](NC(=O)[C@H](C(=O)O)c3ccsc3)C(=O)N2[C@H]1C(=O)O [ticarcillin]	> 10	> 10	–	0	0	–	103	97.6	91.1	102	93.6	106	97.3	87.7	102	88.8	–	–	–	–	–	> 10	> 10	0	0	91.5	106	109	97.7	103	101	100	98.6	98.1	101
CS(=O)(=O)CCNCc1ccc(-c2ccc3ncnc(Nc4ccc(OCc5cccc(F)c5)c(Cl)c4)c3c2)o1 [lapatinib]	–	> 10	–	4.8	0	5.5	100	93.7	90.1	77.3	62.8	98	107	104	112	89.1	96.9	100	92.4	74.6	51.5	0.176	–	15.1	1.4	102	89.6	74.2	35.8	24.5	98.4	93.6	94	92.3	74.9
Cc1ccccc1C(OCCN(C)C)c1ccccc1 (configuration not stated) [orphenadrine]	> 10	> 10	–	0	0	–	99.9	93.6	94.3	98.7	95.5	102	108	90.7	105	109	–	–	–	–	–	> 10	> 10	0	0	99.5	103	106	102	92.9	106	97.7	95.5	97.5	97.8
CC(C)CNc1nc(-c2cccc3ncccc23)cn2c(-c3ccc(C(=O)NC4CC4)cc3)cnc12 [Mps-BAY-2a]	> 10	0.255	–	3.8	9.3	5.9	93.1	82.9	93.1	79.4	79.9	87.9	100	86	57.4	47.6	95.7	94.5	90.1	71.1	62.2	> 10	–	0	1.4	107	98.5	104	103	93	101	97.6	103	99.1	70.6
N=C(Nc1ccc(I)cc1)NC1C2CC3CC(C2)CC1C3 (configuration not stated) [IPAG]	2.05	1.81	–	6.6	7.1	2.7	103	98.4	97.9	88.3	16.2	97.7	96	87.6	84.8	17	95.7	102	94.5	94.2	63.8	> 10	> 10	0.7	0	106	103	98.2	101	77.2	103	102	105	96.4	93.8
CCCCCCCCCCCCCCCCCCCCCCCCC(=O)O [pentacosanoic-acid]	> 10	> 10	–	0	0	–	99.2	106	103	96.8	101	112	109	98	102	111	–	–	–	–	–	> 10	> 10	0	0	91.9	97.1	92.5	92.2	102	98.3	98.5	97.4	95.9	106
O=C(O)CCCCN(CCc1ccccc1OCc1ccc(CCc2ccccc2)cc1)Cc1ccc(C(=O)O)cc1 [cinaciguat]	> 10	> 10	–	0	0	–	110	110	104	86	104	106	110	98.9	109	105	–	–	–	–	–	–	–	–	–	–	–	–	–	–	–	–	–	–	–
COc1cc(OC)c2c(=O)[nH]c(-c3cc(C)c(OCCO)c(C)c3)nc2c1 [apabetalone]	> 10	> 10	–	0	0.9	2.9	109	96.9	102	101	87.6	101	99.9	91.3	93.2	79.9	99.8	98.4	105	93	63.8	> 10	> 10	0	0	98.5	90.2	90.2	99.4	102	102	102	104	96.8	89.2
O=C(NCC1(N2CCN(c3ccccc3)CC2)CCOCC1)c1cccnc1Sc1ccccc1	> 10	> 10	–	0	0	–	99.8	97.4	103	98.1	94.1	107	101	103	97.5	91.4	–	–	–	–	–	> 10	> 10	0	0	99.4	106	104	99.8	95	96.1	96.5	101	98.9	102
